# From patent publication US10233146B2, “Acetylenic cyanoenones as therapeutics for inflammation and carcinogenesis” (THE RESEARCH FOUNDATION FOR THE STATE UNIVERSITY OF NEW YORK, priority 2015, dated 2019)
# “Also recorded” adds a separate entry of the source.
# Key:
# NQO1 [1] = assay: Induction of NQO1 in Hepa1c1c7 murine hepatoma cells; assay type: cell-based; conditions: for EC (2-fold NQO1 activity): Mus musculus, Hepa-1c1c7, Hepa1c1c7 cells, 48 h treatment, read-out: NQO1 CD (concentration required to double the specific enzyme activity of NQO1)
# Text: In this assay, the concentration required to double (CD value) the specific enzyme activity of NQO1 is used to quantify inducer potency. […] Dinkova-KOstova, A. T. et al. 2012). […] These compounds may be more robust inducers than monocyclic compounds. [table]
# Keap1/Nrf2/ARE pathway = conditions: topical daily 200 nmol, five days per week for four weeks, cited from earlier work
# [2] = test system: NQO1 and glutathione S-transferases; conditions: mice, 9.2 mg per kg of food in the diet; cited from earlier work
# NQO1 [3] = conditions: Hepa1c1c murine hepatoma cells; cited from earlier work
# [4] = UV study of Michael adduct formation with chloride anion of the buffer (without DTT); assay type: physicochemical; conditions: 0.1 mM compound, phosphate buffer saline-1% ethanol (pH 7.4)
# Procedure: 1. UV Studies on Monocyclic and Bicyclic Compounds 4-9 with DTT Compounds 5-8 with DTT gave similar UV spectra to those of 3 (Taylor, S. K. et al. 1988). Compounds 5-8 have local maximum absorptions at 332-338 nm upon the addition of DTT (1 and 10 equiv) under dilute (0.1 mM of the compounds) and neutral aqueous conditions (pH 7.4 phosphate buffered saline-1% ethanol containing 1 mM KH2PO4, 5.6 mM Na2HPO4, and 154 mM NaCl) (Table 1 and FIG. 2). Also, these compounds react with a chloride anion (a much weaker nucleophile than a sulfhydryl group of DTT), which is contained in the buffer solution, to give Michael adducts whose local maximum absorptions are observed at 320-326 nm. […]
# [5] = UV study of Michael adduct formation with DTT; assay type: physicochemical; conditions: 0.1 mM compound, phosphate buffer saline-1% ethanol (pH 7.4), rt; for A (absorbance) With DTT (1 equiv) / λmax With DTT (1 equiv): 0.1 mM DTT; for A (absorbance) With DTT (10 equiv) / λmax With DTT (10 equiv): 1 mM DTT
# Procedure: Calculation of Approximate Equilibrium Constant (K)
# The concentrations of 3, with initial concentration of 0.1 mM, and DTT, with initial concentration of 0.1 mM, in the phosphate buffer are calculated to be 0.0855 mM as follows: (1) The absorbance (A) is 0.956 at 0.1 mM concentration of 3 in deionized water. (2) The A of 3 is 0.817 in the phosphate buffer. (3) The concentrations of 3 and DTT in the buffer are calculated to be 0.0855 mM based on (1) and (2). From these concentrations, the approximate K is calculated as follows: K=[Adduct]/[3]×[DTT]=0.0145×10^−3/[…]=2.0×10^3 (Liters/mol).
# Unfortunately, since the λmax of 4-8 was not observed due to the overlapping, we can't calculate the concentrations of the adducts of 4-8 by the same method as for 3. However, since we can speculate that the ε of the adducts of 4-8 is almost similar to that of the adduct of 2, we can calculate the concentrations of the adducts of 4-8 based on the A (0.227 at 0.0145 mM) of the adduct of […] and the A of the adducts of 4-8. For example, the concentration of the adduct of 5 is 0.0145×0.369 (A of the adduct of 5)/0.227=0.0235 (mM). Therefore, the concentrations of 5 and DTT are 0.0765 (mM/each). Thus, K of 5=0.0235×10^−3/0.0765×0.0765×10^−6=4.0×10^3 (Liters/mol). The K of 4 and 6-8 are also calculated using the A (0.227 at 0.0145 mM) of the adduct of 3 and the A of the adducts of 4 and 6-8, respectively.
# Chemical reactivity of monocyclic, bicyclic, and tricyclic compounds 4-15 as Michael acceptors was evaluated using UV spectroscopy.
# Michael reaction between ethynylcyanodienones with DTT give adducts IV (Scheme 11). Since adducts IV have different UV absorption spectra (λmax 330-380 nm) from those of the corresponding ethynylcyanodienones (λmax 230-320 nm), UV spectroscopy can clarify whether or not the Michael adducts are produced.^6
# 1. UV Studies on Monocyclic and Bicyclic Compounds 4-9 with DTT Compounds 5-8 with DTT gave similar UV spectra to those of 3 (Taylor, S. K. et al. 1988). Compounds 5-8 have local maximum absorptions at 332-338 nm upon the addition of DTT (1 and 10 equiv) under dilute (0.1 mM of the compounds) and neutral aqueous conditions (pH 7.4 phosphate buffered saline-1% ethanol containing 1 mM KH2PO4, 5.6 mM Na2HPO4, and 154 mM NaCl) (Table 1 and FIG. 2). Also, these compounds react with a chloride anion (a much weaker nucleophile than a sulfhydryl group of DTT), which is contained in the buffer solution, to give Michael adducts whose local maximum absorptions are observed at 320-326 nm.
# We have calculated approximate equilibrium constants (K) of these Michael reactions in the solutions of 5-8 with DTT (each initial concentration, 0.1 mM. See the calculation of the equilibrium constants in the Supporting Information). The values of K are approximately 1.0-4.2×10^3 (L/mol), implying that these additions are very strongly favored.
# Tricyclic compounds 10-15 react with DTT to give the adducts whose local maximum absorptions are observed at 374-383 nm range (Table 1 and FIG. 2). […] Among phenanthrene derivatives, substitutents at C5 decrease the reactivity.
compound,measurement,setting,value
"C#C[C@]12C=C(C#N)C(=O)C=C1[C@@]1(C)C=C(C#N)C(=O)C(C)(C)[C@@H]1CC2 (racemic) [TBE-31 (1), (±)-(4bS,8aR,10aS)-10a-ethynyl-4b,8,8-trimethyl-3,7-dioxo-3,4b,7,8,8a,9,10, 10a-octahydrophenanthrene-2,6-dicarbonitrile]",EC (2-fold NQO1 activity),NQO1 [1],0.0009 µM
same,"6-thioguanine incorporation into DNA of skin, blood, and liver",Keap1/Nrf2/ARE pathway; azathioprine-treated mice,decreases
same,systemic induction of the Keap1/Nrf2/ARE pathway,Keap1/Nrf2/ARE pathway,robust systemic induction
same,IC50,iNOS,1 nM
same,"induction of NQO1 and glutathione S-transferases in the stomach, skin, and liver",[2],profoundly and dose-dependently induces
same,upregulation of NQO1,NQO1 [3],upregulates NAD(P)H: quinone oxidoreductase 1 (NQO1)
"C#CC12C=C(C#N)C(=O)C=C1c1ccccc1C2 (stereo not shown) [Compound 14, 9a-Ethynyl-3-oxo-9,9a-dihydro-3H-fluorene-2-carbonitrile]",magnitude of NQO1 induction at higher concentrations,"NQO1 [1]; FIG. 3, concentrations higher than the CD values",induce NQO1 more effectively than monocyclic compounds 3-6; also recorded: induces NQO1 to a greater magnitude than 3 and 5
same,EC (2-fold NQO1 activity),NQO1 [1],0.041 µM
same,melting point,,202 to 203 °C
same,IC50,iNOS,480 nM
same,A (absorbance) Without DTT (With Cl^—),[4],0.867
same,λmax Without DTT (With Cl^—),[4],364 nm
same,A (absorbance) With DTT (1 equiv),[5],0.808
same,λmax With DTT (1 equiv),[5],377 nm
same,A (absorbance) With DTT (10 equiv),[5],0.820
same,λmax With DTT (10 equiv),[5],382 nm
"C#CC12C=C(C#N)C(=O)C=C1c1c(Cl)cccc1C2 (stereo not shown) [Compound 15, 5-Chloro-9a-ethynyl-3-oxo-9,9a-dihydro-3H-fluorene-2-carbonitrile]",EC (2-fold NQO1 activity),NQO1 [1],0.13 µM
same,melting point,,191 to 193 °C
same,IC50,iNOS,800 nM
same,A (absorbance) Without DTT (With Cl^—),[4],1.025
same,λmax Without DTT (With Cl^—),[4],369 nm
same,A (absorbance) With DTT (1 equiv),[5],0.819
same,λmax With DTT (1 equiv),[5],378 nm
same,A (absorbance) With DTT (10 equiv),[5],0.803
same,λmax With DTT (10 equiv),[5],383 nm
